“Also recorded” adds a separate entry of the source.
What was measured:
[1] = tested on: SHIP1+/+ and SHIP1−/− BMMCs; test: Intracellular signaling after FcεR1 crosslinking in BMMCs (immunoblot); format: cell-based, mouse; details: 10 μg/ml, 30 min; 20 ng/ml DNP-HSA 5 min
Experimental: Stimulation of BMMCs by FcεR1 crosslinking. SHIP1+/+ and SHIP1−/− BMMCs were pre-loaded overnight in BMMC medium lacking IL-3 with 0.1 μg/ml anti-DNP IgE (SPE-7, Sigma, Oakville, Ont). For calcium flux measurements, the cells were incubated with 2 μM fura 2-acetoxymethyl ester (Molecular Probes, Eugene, Oreg.) in Tyrode's buffer at 23° C. for 45 min. The cells were then washed and incubated in the presence of vehicle control, LY294002 or AQX-016A 30 min prior to stimulation with the indicated concentration of DNP-human serum albumin (DNP-HSA). Calcium influx was then monitored by spectrofluorometry as described previously (19). Experiments were repeated at least 3 times. For analysis of intracellular signaling, cells were pre-loaded with anti-DNP IgE as above, pre-treated with AQX-016A or buffer control for 30 min at 37° C. and stimulated with 20 ng/ml DNP-HSA for 5 min. Total cell lysates were then prepared and analyzed for phospho-PKB, phospho-p38MAPK, phospho-MAPK, Grb-2 (Cell Signalling, Mississauga, Ont) and SHIP1 (18) by immunoblot analysis as described previously (20). Results are representative of 3 independent experiments.

[2] = tested on: SHIP1+/+ and SHIP1−/− BMMCs; test: IgE+antigen-induced calcium flux in BMMCs; format: cell-based, mouse; details: 30 min pretreatment, DNP-HSA stimulation
Experimental: Production of SHIP+/+ and SHIP−/− BMMCs and BMnφs. To obtain BMMCs, bone marrow cells were aspirated from 4 to 8 week old C57B16×129Sv mixed background mice and SHIP1+/+ and SHIP1−/− BMMCs prepared as described previously (17). After 8 weeks in IMDM+15% FCS (StemCell Technologies, Vancouver, Canada)+150 μM MTG+30 ng/ml IL-3 (BMMC medium) more than 99% of the cells were c-kit and FcεR1 positive as determined by flow cytometry with FITC-labeled anti-c-kit (BD Pharmingen, Mississauga, Canada) and FITC-labeled IgE (anti-Epo), respectively. BMmφs from SHIP1+/+ and SHIP1−/− mice were obtained and maintained in IMDM supplemented with 10% FCS, 150 μM MTG, 2% C127 cell conditioned medium as a source of macrophage colony stimulating factor (MCSF) (BMmφ medium).
Stimulation of BMMCs by FcεR1 crosslinking. SHIP1+/+ and SHIP1−/− BMMCs were pre-loaded overnight in BMMC medium lacking IL-3 with 0.1 μg/ml anti-DNP IgE (SPE-7, Sigma, Oakville, Ont). […] Calcium influx was then monitored by spectrofluorometry as described previously (19). […] Total cell lysates were then prepared and analyzed for phospho-PKB, phospho-p38MAPK, phospho-MAPK, Grb-2 (Cell Signalling, Mississauga, Ont) and SHIP1 (18) by immunoblot analysis as described previously (20). […]

[3] = tested on: 100 protein kinase and phosphatase targets; test: In vitro kinase/phosphatase screen; format: biochemical; details: 2 μM final concentration; changes <25% not considered significant
Experimental: Protein kinase assays were performed at 30° C. for 15 min in a final volume of 25 μL. The assay was initiated by the addition of [32P]-ATP and the reaction mixture incubated at 30° C. for 15 minutes. After the 15 minute incubation period, the assay was terminated by spotting 20 μl of the reaction mixture onto phosphocellulose P81 plate. The phosphocellulose P81 plate was washed 3 times for approximately 15 minutes each in a 1% phosphoric acid solution. The radioactivity on the P81 plate was counted in the presence of scintillation fluid in a scintillation counter. Protein phosphatase activities were determined using pNPP as substrate. Assays were performed at 37° C. for 15 min in a […]. The assay was started by incubating the reaction mixture at 37° C. for 15 minutes. After the 15 minutes incubation period, the assay was terminated by the addition of 25 μl of 2N NaOH stopping solution. The absorbance of the reaction solution was measured in a spectrophotometer at 410 nm. The activity of the enzymes in the presence of AQX-MN100 was compared to that in the vehicle control and expressed as a % change in activity relative to that observed in the vehicle control. Changes in activity of <25% were not considered significant. _

Row | SMILES | phosphorylation of PKB, p38MAPK and ERK, SHIP1+/+ vs SHIP1−/− BMMCs [1] | IgE+antigen-induced calcium entry, SHIP1+/+ vs SHIP1−/− mast cells [2] | activity on a panel of 100 kinases and phosphatases [3]
1 | Cc1cc(O)c(O)c2c1[C@]1(C)CC[C@H]3C(C)(C)CCC[C@]3(C)[C@H]1C2 [AQX-016A] | inhibited the phosphorylation of PKB, p38MAPK and ERK in SHIP1+/+ but not in SHIP1−/− | inhibited IgE+antigen-induced calcium entry to a substantially greater degree in SHIP1+/+ than in SHIP1−/− | –
2 | Cc1cc(O)cc2c1[C@]1(C)CC[C@H]3C(C)(C)CCC[C@]3(C)[C@H]1C2 [AQX-MN100] | – | – | very little activity; also recorded: selectively enhances SHIP enzyme activity
